The source of these data is article PMC7409197, “Adenosine Receptors as Neuroinflammation Modulators: Role of A1 Agonists and A2A Antagonists” (Cells, 2020).

Test [1] relates to mixed glial cells. The test can be described thus: Griess assay (nitrite production) in mixed glial cells. It is filed as cell-based, rat. Conditions: 30 min. On the procedure: To test the antioxidant capacity of these new molecules Griess assay was performed. The Griess Reagent System is based in the conversion of sulphanilamide into an azo-compound with the presence of N-1-napthylenediamide dihydrochloride (NED) under acidic condition. 1.7 × 10^4 mixed glial cells were cultured in 98 μL of the specific medium in a 96 well plate overnight. After 24 h the media from each well of the cell culture was transferred into a 96 well plate and then 50 µL of the sulphanilamide solution was added to each well. After 5–10 min of incubation at room temperature (rt), 50 µL of the NED Solution were dispensed to all wells and they were incubated at rt for other 5–10 min. Absorbance was measured within 30 min in the plate reader GENiosPro with a filter between 520 nm and 550 nm. This experiment was performed 3–5 replicates. Concentration of NO¬¬¬¬2¯ in each sample was determined by comparison to a Nitrite standard reference curve.
A general note: Griess reagent forms a coloured azo dye with nitrite.

In test [2] the target is human A1AR. More on the design: method as in PMID 30614535. The settings on record: CHO cells stably transfected with human ARs; read-out: KiA1AR; cited from earlier work.
In test [3] the target is human A2AAR. More on the design: method as in PMID 30614535. Conditions: CHO cells stably transfected with human ARs; read-out: KiA2AAR; cited from earlier work.
Test [4] concerns the target human A3AR. More on the design: method as in PMID 30614535. Conditions: CHO cells stably transfected with human ARs; read-out: KiA3AR; cited from earlier work.
The subject of test [5] is hA1AR. More on the design: method as in PMID 30614535. Conditions: inhibition of adenyl cyclase activity induced by forskolin, cited from earlier work.
The test system of test [6] is mouse ileum contractility. More on the design: method as in PMID 30614535. Conditions: ex vivo mouse ileum; cited from earlier work.
Test [7] deals with SH-SY5Y cells. More on the design: method as in PMID 30614535. Conditions: different concentrations; cited from earlier work.
For test [8], the target named is T1, A2AAR (Homo sapiens, UniProt P29274). In words: A2AAR affinity (Ki), method not described. Format: binding. The settings on record: unpublished results of the authors; read-out: KiA2AAR.
T1 sequence (P29274 whole entry): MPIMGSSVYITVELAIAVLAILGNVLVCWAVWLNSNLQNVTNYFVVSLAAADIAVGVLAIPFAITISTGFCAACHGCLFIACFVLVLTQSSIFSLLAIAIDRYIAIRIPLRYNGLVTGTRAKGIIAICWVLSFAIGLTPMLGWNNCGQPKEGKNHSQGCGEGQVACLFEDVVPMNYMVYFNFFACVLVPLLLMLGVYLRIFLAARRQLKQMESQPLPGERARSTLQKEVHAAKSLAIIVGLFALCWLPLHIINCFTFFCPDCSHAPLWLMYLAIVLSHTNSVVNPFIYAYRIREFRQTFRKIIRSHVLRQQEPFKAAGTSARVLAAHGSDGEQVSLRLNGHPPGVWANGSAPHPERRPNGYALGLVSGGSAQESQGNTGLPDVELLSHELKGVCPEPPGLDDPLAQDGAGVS
For test [9], the target named is T2, A1AR (Homo sapiens, UniProt P30542).
T2 sequence (P30542 1-326): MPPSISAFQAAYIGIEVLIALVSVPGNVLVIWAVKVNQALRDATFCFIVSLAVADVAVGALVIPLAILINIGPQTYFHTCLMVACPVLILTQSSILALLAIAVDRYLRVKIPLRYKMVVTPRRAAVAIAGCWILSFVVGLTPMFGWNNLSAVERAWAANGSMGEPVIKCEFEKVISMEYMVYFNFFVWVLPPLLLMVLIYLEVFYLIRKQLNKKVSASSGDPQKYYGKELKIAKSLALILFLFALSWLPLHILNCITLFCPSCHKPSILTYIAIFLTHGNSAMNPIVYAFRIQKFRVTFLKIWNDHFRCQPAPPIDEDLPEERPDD
The test can be described thus: A1AR affinity (Ki), method not described. Format: binding. Conditions: unpublished results of the authors; read-out: KiA1AR.

The target in test [10] is T3, A3AR (Homo sapiens, UniProt P0DMS8).
T3 sequence (P0DMS8 1-318): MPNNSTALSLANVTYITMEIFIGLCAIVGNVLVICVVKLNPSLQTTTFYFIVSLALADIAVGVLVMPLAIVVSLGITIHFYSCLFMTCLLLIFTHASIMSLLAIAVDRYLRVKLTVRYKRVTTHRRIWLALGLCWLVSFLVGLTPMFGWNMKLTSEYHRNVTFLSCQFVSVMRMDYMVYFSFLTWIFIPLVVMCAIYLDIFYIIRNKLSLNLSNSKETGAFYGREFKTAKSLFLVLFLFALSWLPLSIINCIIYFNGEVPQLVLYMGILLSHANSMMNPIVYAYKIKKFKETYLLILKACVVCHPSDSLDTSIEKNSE
The test can be described thus: A3AR affinity (Ki), method not described. Format: binding. The settings on record: unpublished results of the authors; read-out: KiA3AR.

For test [11], the target named is T1, A2AAR. The test can be described thus: A2AAR functional antagonism (IC50), method not described. The settings on record: unpublished results of the authors; read-out: IC50A2AAR. It is filed as biochemical.
For test [12], the system named is mixed glial cells. In words: Trypan blue exclusion test in mixed glial cells. The settings on record: 30 min. It is filed as cell-based, rat. On the procedure:
6 × 10^5 mixed glial cells were seeded in a six well plate and after 24 h incubated with C2 10 nM alone or in presence of CK cocktail. After 30 min at 37 °C cells were detached with Trypsin-EDTA solution and 10 µL of cells were added to 40 μL of 0.4% trypan blue solution. Cells were counted with a Neubauer chamber and the number of live cells was calculated.

In the case of `OC[C@H]1O[C@@H](n2cnc3c(NC4CCCC4)nc(Cl)nc32)C[C@@H]1O` [Compound C1, 2-chloro-N^6-cyclopentyl-2′-deoxyadenosine], the “antioxidant activity (Griess)” value in test [1] (5.5 µM, alone and in combination with CK) was “did not show any antioxidant activity”. Further, the Ki in test [2] is 550 nM; in test [3], 24800 nM; in test [4], 5560 nM. Further, the “α (intrinsic activity, partial agonist)” value in [5] was 0.70. Besides, in test [5] (read-out: EC50A1AR), the EC50 is 832 nM. Also, in test [6], the “maximal reduction of contractility relative to full agonist CCPA” value is reported as 75%. Further, the “protection from oxygen-glucose deprivation (OGD)” value in test [7] is listed as “protect SH-SY5Y cells from oxygen-glucose deprivation (OGD)”.

As to `CCn1c(Cl)nc2c(N)nc(OCCc3ccccc3)nc21` [Compound C2, 8-chloro-9-ethyl-2-phenethoxyadenine], the Ki was found to be 0.75 nM in [8], 17 nM in test [9] and 227 nM in test [10]. Besides, the IC50 in test [11] was determined as 251 nM. Also, the “nitrite levels in presence of CK cocktail” value in [1] (10 nM, after CK cocktail) is on record as “able to decrease the high nitrite levels”. Besides, the “levels of nitrite produced” value in [1] (10 nM, alone) is listed as “lower than those obtained in control”. For the same compound, the “live cells vs. control (trypan blue)” value in test [12] (10 nM alone) is on record as 123 ± 4.5. In addition, the “number of cells vs. control (trypan blue)” value in test [12] (10 nM, after aggression with CK cocktail) was 129 ± 3.5.
